Tested on: yeast genes (level of expressed mRNA)
Assay: DNA chip analysis of expressed mRNA of yeast genes after 2 h culture with a toxic chemical substance
Type: cell-based, Saccharomyces cerevisiae S288C
Conditions: for The level of expressed mRNA in the presence of chemical substance/ (ratio to absence of chemical substance): stress protein genes, DNA chip
Description: Yeast (Saccharomyces cerevtisiae S288C (α SUC2mal mel gap2 CUP1)) were cultured at 25° C. on YPD medium (yeast extract 1%, polypepton 2%, glucose 2%). One of toxic chemical substances was added to the cell at logarithmic growth phase, and the cell was further cultured for two hours. Cell was cultured without any chemical substance in the same condition, and was used as control. Concentrations of the chemical substances were defined to inhibit the growth of the yeast but not lead to death.
After the completion of cultivation, the culture was centrifuged to collect the cells. To the cells, sodium acetate buffer (50 mM sodium acetate, 10 mM EDTA, 1% SDS) was added, and the mixture was shaken at 65° C. for five minutes, followed by returning to room temperature, and obtaining the supernatant, which procedure was repeated two times. To the supernatant, ½ amount of a solution of phenol/chloroform was added, and the mixture was centrifuged to give a supernatant, which was added with an equal amount of chloroform, and the mixture was centrifuged to give a supernatant. To the supernatant, an equal amount of isopropanol containing 0.3 M sodium acetate was added, and the mixture was allowed to stand at room temperature for 30 minutes, after which the mixture was centrifuged to give a sediment of the whole RNAs. Seventy % ethanol was added to the sediment, and the mixture was again centrifuged to give a sediment, which was then dried and dissolved in water. mRNA was isolated from the whole RNAs as followings. In view of the fact that a poly A chain is attached to the 3′ terminus of mRNA, a polynucleotide having a poly T structure which was immobilized on the surface of latex beads was used to trap the mRNA, and then the mRNA was washed and eluted with spine column (Oligotex-dT30<Super>mRNA Purification Kit, Takara). Reverse transcription of the mRNA was conducted with a reverse transcriptase (Super Script II Reverse Transcriptase; catalogue No. 18064-014, GibcoBRL) using fluorescence-labeled nucleotides to give cDNAs that were introduced with Cy3-dUTP or Cy5-dUTP during the reverse transcription.
The labeled cDNAs were dissolved in TE buffer (10 mM Tris-HCl/1 mM EDTA, pH8.0), and the solution was dropped on the DNA chip containing the whole genes of yeast (DNA Chip Research Inc. Japan) so that the cDNAs were hybridized on the DNA chip at 65° C. for over 12 hours. The fluoresces intensity of the DNA chip was read with a scanner, and the ratio relative to the fluorescence intensity resulting from the absence of chemical substance was estimated as the following, which is shown in Tables 1 to 9: [formula]
In the Tables, “Intensity” indicated in the rightmost column is a value of the level of expressed mRNA of each gene in control cells as divided by the average level of the expressions of the whole genes.

Structure (SMILES): S=C([S-])NCCNC(=S)[S-].[Zn+2] [(11), zinc N,N′-ethylenebis(dithiocarbamate)]
- The level of expressed mRNA in the presence of chemical substance/absence: YOR253W (gene YOR253W): 0.9
- The level of expressed mRNA in the presence of chemical substance/absence: YOR267C (gene YOR267C): 0.4
- The level of expressed mRNA in the presence of chemical substance/absence: YOR325W (gene YOR325W): 0.6
- level of expressed mRNA in the presence of chemical substance/in its absence (gene YOR336W): 1.4
- level of expressed mRNA in the presence of chemical substance/in its absence (gene YOR344C): 0.6
- level of expressed mRNA in the presence of chemical substance/in its absence (gene YOR347C): 1.4
- The level of expressed mRNA in the presence of chemical substance/absence: YPL005W (gene YPL005W): 1.1
- level of expressed mRNA in the presence of chemical substance/in its absence (gene YPL017C): 0.4
- The level of expressed mRNA in the presence of chemical substance / the level in the absence of chemical substance, yeast gene YPL107W (gene YPL107W, DNA chip fluorescence ratio to control without chemical, 2 hours culture with chemical, growth-inhibiting non-lethal concentration): 1.1
- The level of expressed mRNA in the presence of chemical substance / the level in the absence of chemical substance, yeast gene YPL138C (gene YPL138C, DNA chip fluorescence ratio to control without chemical, 2 hours culture with chemical, growth-inhibiting non-lethal concentration): 0.5
- The level of expressed mRNA in the presence of chemical substance/absence: YPL150W (gene YPL150W): 1.1
- The level of expressed mRNA in the presence of chemical substance/absence: YPL151C (gene YPL151C): 0.9
- The level of expressed mRNA in the presence of chemical substance/absence: YPL152W (gene YPL152W): 1.4
- The level of expressed mRNA in the presence of chemical substance/absence: YPL168W (gene YPL168W): 0.7
- The level of expressed mRNA in the presence of chemical substance/absence: YPL180W (gene YPL180W): 1.0
- The level of expressed mRNA in the presence of chemical substance/absence: YPL188W (gene YPL188W): 1.0
- The level of expressed mRNA in the presence of chemical substance/absence: YPL221W (gene YPL221W): 1.0
- The level of expressed mRNA in the presence of chemical substance/absence: YPL225W (gene YPL225W): 0.9
- The level of expressed mRNA in the presence of chemical substance/absence: YPL249C (gene YPL249C): 0.9
- The level of expressed mRNA in the presence of chemical substance/absence: YPL260W (gene YPL260W): 1.0
- level of expressed mRNA in the presence of chemical substance/in its absence (gene YPL265W): 1.8
- level of expressed mRNA in the presence of chemical substance/in its absence (gene YPR006C): 2.4
- level of expressed mRNA in the presence of chemical substance/in its absence (gene YPR026W): 1.6
- The level of expressed mRNA in the presence of chemical substance/absence: YPR049C (gene YPR049C): 0.9
- The level of expressed mRNA in the presence of chemical substance/absence: YPR061C (gene YPR061C): 1.6
- The level of expressed mRNA in the presence of chemical substance/absence: YPR093C (gene YPR093C): 1.2
- The level of expressed mRNA in the presence of chemical substance/absence: YPR146C (gene YPR146C): 1.4
- The level of expressed mRNA in the presence of chemical substance/absence: YPR148C (gene YPR148C): 0.9
- The level of expressed mRNA in the presence of chemical substance/absence: YPR150W (gene YPR150W): 0.9
- The level of expressed mRNA in the presence of chemical substance/absence: YPR158W (gene YPR158W): 1.5
- The level of expressed mRNA in the presence of chemical substance/absence: YPR169W (gene YPR169W): 1.0
- The level of expressed mRNA in the presence of chemical substance/absence: YPR172W (gene YPR172W): 1.9
- The level of expressed mRNA in the presence of chemical substance/absence: YPR174C (gene YPR174C): 0.7
- The level of expressed mRNA in the presence of chemical substance/The level of expressed mRNA in the absence of chemical substance (yeast gene YAR010C): 0.9
- The level of expressed mRNA in the presence of chemical substance/The level of expressed mRNA in the absence of chemical substance (yeast gene YBL005W-A): 0.8
- The level of expressed mRNA in the presence of chemical substance/ (ratio to absence), gene YBL038W (yeast gene YBL038W, mitochondria-located protein genes, 2 h culture with chemical): 0.7
- The level of expressed mRNA in the presence of chemical substance/The level of expressed mRNA in the absence of chemical substance (yeast gene YBL041W): 1.6
- The level of expressed mRNA in the presence of chemical substance/The level of expressed mRNA in the absence of chemical substance (yeast gene YBL043W): 1.5
- The level of expressed mRNA in the presence of chemical substance/The level of expressed mRNA in the absence of chemical substance (yeast gene YBL078C): 4.6
- The level of expressed mRNA in the presence of chemical substance/ (ratio to absence of chemical substance) (yeast gene YBL093C): 1.3
- The level of expressed mRNA in the presence of chemical substance/ (in its absence), gene YBR036C (yeast gene YBR036C, ratio of DNA chip fluorescence intensity to that without chemical substance): 1.5
- The level of expressed mRNA in the presence of chemical substance/ (ratio to absence of chemical substance) (yeast gene YBR044C): 1.1
- The level of expressed mRNA in the presence of chemical substance/ (ratio to absence), gene YBR122C (yeast gene YBR122C, mitochondria-located protein genes, 2 h culture with chemical): 1.2
- The level of expressed mRNA in the presence of chemical substance/The level of expressed mRNA in the absence of chemical substance (yeast gene YBR214W): 3.2
- The level of expressed mRNA in the presence of chemical substance/ (ratio to absence), gene YBR251W (yeast gene YBR251W, mitochondria-located protein genes, 2 h culture with chemical): 1.5
- The level of expressed mRNA in the presence of chemical substance/ (in its absence), gene YBR298C (yeast gene YBR298C, ratio of DNA chip fluorescence intensity to that without chemical substance): 1.5
- The level of expressed mRNA in the presence of chemical substance/The level of expressed mRNA in the absence of chemical substance (yeast gene YCL020W): 1.3
- The level of expressed mRNA in the presence of chemical substance/The level of expressed mRNA in the absence of chemical substance (yeast gene YCL027W): 0.9
- The level of expressed mRNA in the presence of chemical substance/The level of expressed mRNA in the absence of chemical substance (yeast gene YCR004C): 1.9
- The level of expressed mRNA in the presence of chemical substance/ (ratio to absence), gene YCR046C (yeast gene YCR046C, mitochondria-located protein genes, 2 h culture with chemical): 1.5
- The level of expressed mRNA in the presence of chemical substance/The level of expressed mRNA in the absence of chemical substance (yeast gene YCR071C): 1.1
- The level of expressed mRNA in the presence of chemical substance/ (ratio to absence), gene YCR083W (yeast gene YCR083W, mitochondria-located protein genes, 2 h culture with chemical): 1.8
- The level of expressed mRNA in the presence of chemical substance/ (ratio to absence of chemical substance) (yeast gene YCR083W): 1.8
- The level of expressed mRNA in the presence of chemical substance/The level of expressed mRNA in the absence of chemical substance (yeast gene YCR088W): 1.0
- The level of expressed mRNA in the presence of chemical substance/The level of expressed mRNA in the absence of chemical substance (yeast gene YDL008W): 0.9
- The level of expressed mRNA in the presence of chemical substance/ in its absence, gene YDL067C (yeast gene YDL067C, energy system protein genes, 2 h culture with the chemical, ratio to control without chemical): 1.4
- The level of expressed mRNA in the presence of chemical substance/ (ratio to absence), gene YDL067C (yeast gene YDL067C, mitochondria-located protein genes, 2 h culture with chemical): 1.4
